Test results from ChEMBL document CHEMBL1201862, “PubChem BioAssay data set” (2004).
Calls of active or inactive are those of the source.

Legend:
[1] = biological target: T1, Ubiquitin-conjugating enzyme E2 N (Homo sapiens, UniProt P61088); assay type: functional;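 note: Dose-response confirmation in a TR-FRET assay detecting UBC13-driven polyubiquitin chain formation, inhibition measured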
T1 sequence (P61088 whole entry): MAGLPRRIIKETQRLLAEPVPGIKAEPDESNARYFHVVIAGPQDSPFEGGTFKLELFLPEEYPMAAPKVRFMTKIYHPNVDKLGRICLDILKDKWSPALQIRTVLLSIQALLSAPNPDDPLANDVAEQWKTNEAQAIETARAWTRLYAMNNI

[2] = tested on: Vero; assay: Vero 76 cell viability after compound exposure – Vero 76 cells, synthesized analogs, cytotoxicity control for West Nile virus antiviral project, SAR follow-up (AID 2414); assay type: functional, Chlorocebus sabaeus; settings: Chlorocebus sabaeus, Vero
[3] = A Cell Based Assay for the Identification of Probe candidate Compounds with Anti- Venezuelan Equine Encephalitis virus. [Related pubchem assays: 2409, 2419, 1621, 2238, 2405, 2024, 2065, 2402, 2414, 1635, 1650, 2244 ]; assay type: functional
[4] = tested on: Vero; assay: Vero cell viability after compound exposure – synthesized analogs, set II, cytotoxicity control for West Nile virus antiviral project, SAR follow-up (AID 2402); assay type: functional, Chlorocebus sabaeus; settings: Chlorocebus sabaeus, Vero
[5] = tested on: Vero; assay: host cell viability loss, Vero E6 – synthesized analogs, cytotoxicity control for West Nile virus antiviral project, SAR follow-up (AID 2244); assay type: functional; settings: Chlorocebus sabaeus
[6] = biological target: DNA repair and recombination protein RAD54-like (Homo sapiens, UniProt Q92698); assay: RAD54 Holliday junction migration blockers – biochemical, fluorescence, cherry-picked samples, dose series, confirmation (AID 651657); assay type: functional
[7] = A cytotoxicity screen of small molecule inhibitors of the PhoP region in Salmonella typhi identified in the primary screen. [Related pubchem assays: 1850, 1864, 1985 ]; assay type: functional
[8] = biological target: Heat shock protein HSP 90-alpha (Homo sapiens, UniProt P07900); assay type: functional, organism-based
[9] = biological target: Beta-galactosidase (Escherichia coli, UniProt Q8VNN2); assay: detection-enzyme interference by beta-gal modulators – biochemical, E. coli enzyme, set 3, artefact control for CCR6 antagonist project, dose response (AID 504712); assay type: functional
[10] = biological target: Induced myeloid leukemia cell differentiation protein Mcl-1 (Homo sapiens, UniProt Q07820); assay type: functional
[11] = biological target: Glucose-6-phosphate 1-dehydrogenase (Homo sapiens, UniProt P11413); assay: inhibition of Homo sapiens G6PD, dose series – biochemical, fluorescence, selectivity assay for P. falciparum G6PD inhibitor project, dose response (AID 504792); assay type: functional
[12] = biological target: T2, RNA-binding protein pos-1 (Caenorhabditis elegans, UniProt G5EF15); assay: disruptors of C. elegans POS-1 RNA interaction – biochemical, fluorescence polarization, dose response (AID 1964);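 note: purified POS-1 fused to maltose binding protein made in E. coli; potency of compounds blocking POS-1 binding to fluorescent RNA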
T2 sequence (G5EF15 whole entry): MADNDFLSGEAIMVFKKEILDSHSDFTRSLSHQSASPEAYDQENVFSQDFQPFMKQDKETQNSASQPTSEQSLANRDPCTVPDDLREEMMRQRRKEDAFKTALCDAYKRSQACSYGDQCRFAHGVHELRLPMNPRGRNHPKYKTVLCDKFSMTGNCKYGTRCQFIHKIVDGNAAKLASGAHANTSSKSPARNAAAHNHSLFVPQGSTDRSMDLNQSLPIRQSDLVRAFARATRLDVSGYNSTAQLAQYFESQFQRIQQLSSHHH

[13] = biological target: T3, Zinc finger protein mex-5 (Caenorhabditis elegans, UniProt Q9XUB2); assay: potency of MEX-5 RNA-binding blockers – biochemical, C. elegans, fluorescence polarization, dose response (AID 1960)
T3 sequence (Q9XUB2 whole entry): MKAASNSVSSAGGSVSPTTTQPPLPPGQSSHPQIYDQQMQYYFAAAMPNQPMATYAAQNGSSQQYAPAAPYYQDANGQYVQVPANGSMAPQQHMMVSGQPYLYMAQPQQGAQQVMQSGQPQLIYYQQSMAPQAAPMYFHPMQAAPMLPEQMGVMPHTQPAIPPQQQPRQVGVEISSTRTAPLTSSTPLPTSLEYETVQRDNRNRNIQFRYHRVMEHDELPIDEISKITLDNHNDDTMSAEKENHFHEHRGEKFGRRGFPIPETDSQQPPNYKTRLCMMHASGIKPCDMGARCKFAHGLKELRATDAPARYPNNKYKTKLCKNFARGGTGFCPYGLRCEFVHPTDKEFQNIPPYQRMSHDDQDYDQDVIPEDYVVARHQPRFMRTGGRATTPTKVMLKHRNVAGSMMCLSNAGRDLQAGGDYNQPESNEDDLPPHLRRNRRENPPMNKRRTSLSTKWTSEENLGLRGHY

[14] = biological target: G-protein coupled receptor 55 (Homo sapiens, UniProt Q9Y2T6); assay: selective activators of receptor GPR55 – imaging, U2OS cells, beta-arrestin-GFP redistribution, primary screen (AID 1961); assay type: functional
Chain of G-protein coupled receptor 55 (Q9Y2T6 whole entry): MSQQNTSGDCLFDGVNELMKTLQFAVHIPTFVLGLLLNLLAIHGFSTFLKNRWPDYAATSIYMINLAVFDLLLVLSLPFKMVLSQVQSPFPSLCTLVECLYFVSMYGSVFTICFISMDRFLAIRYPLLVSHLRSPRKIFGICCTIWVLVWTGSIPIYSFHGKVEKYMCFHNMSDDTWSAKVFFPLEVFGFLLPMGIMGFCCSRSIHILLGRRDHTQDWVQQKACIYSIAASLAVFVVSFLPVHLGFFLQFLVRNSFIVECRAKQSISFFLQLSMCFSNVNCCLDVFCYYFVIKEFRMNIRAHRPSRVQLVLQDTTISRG

Chain of DNA repair and recombination protein RAD54-like (Q92698 whole entry): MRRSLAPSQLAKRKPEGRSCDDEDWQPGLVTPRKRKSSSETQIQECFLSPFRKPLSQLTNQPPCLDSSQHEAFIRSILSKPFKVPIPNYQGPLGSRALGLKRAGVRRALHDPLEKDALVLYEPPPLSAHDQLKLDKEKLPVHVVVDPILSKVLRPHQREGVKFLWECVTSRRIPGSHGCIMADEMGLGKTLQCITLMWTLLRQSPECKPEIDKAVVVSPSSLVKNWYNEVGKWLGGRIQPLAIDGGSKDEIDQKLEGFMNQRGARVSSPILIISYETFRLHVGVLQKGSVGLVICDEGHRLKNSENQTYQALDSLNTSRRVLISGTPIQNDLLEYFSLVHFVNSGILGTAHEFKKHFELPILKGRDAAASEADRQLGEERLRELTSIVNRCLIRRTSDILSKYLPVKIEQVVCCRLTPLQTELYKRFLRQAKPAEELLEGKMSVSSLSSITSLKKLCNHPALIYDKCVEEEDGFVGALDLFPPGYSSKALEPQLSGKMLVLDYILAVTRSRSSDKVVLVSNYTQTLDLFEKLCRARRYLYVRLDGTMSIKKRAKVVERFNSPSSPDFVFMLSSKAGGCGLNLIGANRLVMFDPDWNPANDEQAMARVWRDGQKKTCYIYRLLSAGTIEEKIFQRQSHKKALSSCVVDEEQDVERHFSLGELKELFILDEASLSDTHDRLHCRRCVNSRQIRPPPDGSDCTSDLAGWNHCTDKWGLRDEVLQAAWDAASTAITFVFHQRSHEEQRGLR
Chain of Induced myeloid leukemia cell differentiation protein Mcl-1 (Q07820 whole entry): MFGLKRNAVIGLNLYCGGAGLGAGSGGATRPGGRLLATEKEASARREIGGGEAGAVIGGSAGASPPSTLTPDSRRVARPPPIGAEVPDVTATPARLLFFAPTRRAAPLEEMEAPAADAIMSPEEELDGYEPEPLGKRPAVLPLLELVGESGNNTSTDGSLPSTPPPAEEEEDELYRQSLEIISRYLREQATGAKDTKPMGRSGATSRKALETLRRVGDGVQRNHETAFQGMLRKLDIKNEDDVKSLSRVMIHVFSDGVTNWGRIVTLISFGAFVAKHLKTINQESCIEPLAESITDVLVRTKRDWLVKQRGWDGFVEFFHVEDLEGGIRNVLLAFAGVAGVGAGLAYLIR
Chain of Glucose-6-phosphate 1-dehydrogenase (P11413 whole entry, the tested form may be a part): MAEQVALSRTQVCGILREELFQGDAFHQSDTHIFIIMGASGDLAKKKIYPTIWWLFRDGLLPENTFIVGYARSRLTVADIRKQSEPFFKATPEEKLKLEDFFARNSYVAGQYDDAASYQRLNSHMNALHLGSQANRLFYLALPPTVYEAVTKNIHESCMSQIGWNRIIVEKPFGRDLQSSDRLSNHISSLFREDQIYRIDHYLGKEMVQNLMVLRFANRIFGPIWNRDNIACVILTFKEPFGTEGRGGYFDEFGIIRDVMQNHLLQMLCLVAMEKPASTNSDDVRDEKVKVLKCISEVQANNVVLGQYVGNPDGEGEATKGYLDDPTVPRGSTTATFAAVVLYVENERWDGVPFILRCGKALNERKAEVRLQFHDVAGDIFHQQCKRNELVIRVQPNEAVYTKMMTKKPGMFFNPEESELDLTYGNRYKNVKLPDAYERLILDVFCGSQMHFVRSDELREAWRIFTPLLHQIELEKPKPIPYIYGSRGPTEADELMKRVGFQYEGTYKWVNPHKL
Chain of Beta-galactosidase (Q8VNN2 whole entry): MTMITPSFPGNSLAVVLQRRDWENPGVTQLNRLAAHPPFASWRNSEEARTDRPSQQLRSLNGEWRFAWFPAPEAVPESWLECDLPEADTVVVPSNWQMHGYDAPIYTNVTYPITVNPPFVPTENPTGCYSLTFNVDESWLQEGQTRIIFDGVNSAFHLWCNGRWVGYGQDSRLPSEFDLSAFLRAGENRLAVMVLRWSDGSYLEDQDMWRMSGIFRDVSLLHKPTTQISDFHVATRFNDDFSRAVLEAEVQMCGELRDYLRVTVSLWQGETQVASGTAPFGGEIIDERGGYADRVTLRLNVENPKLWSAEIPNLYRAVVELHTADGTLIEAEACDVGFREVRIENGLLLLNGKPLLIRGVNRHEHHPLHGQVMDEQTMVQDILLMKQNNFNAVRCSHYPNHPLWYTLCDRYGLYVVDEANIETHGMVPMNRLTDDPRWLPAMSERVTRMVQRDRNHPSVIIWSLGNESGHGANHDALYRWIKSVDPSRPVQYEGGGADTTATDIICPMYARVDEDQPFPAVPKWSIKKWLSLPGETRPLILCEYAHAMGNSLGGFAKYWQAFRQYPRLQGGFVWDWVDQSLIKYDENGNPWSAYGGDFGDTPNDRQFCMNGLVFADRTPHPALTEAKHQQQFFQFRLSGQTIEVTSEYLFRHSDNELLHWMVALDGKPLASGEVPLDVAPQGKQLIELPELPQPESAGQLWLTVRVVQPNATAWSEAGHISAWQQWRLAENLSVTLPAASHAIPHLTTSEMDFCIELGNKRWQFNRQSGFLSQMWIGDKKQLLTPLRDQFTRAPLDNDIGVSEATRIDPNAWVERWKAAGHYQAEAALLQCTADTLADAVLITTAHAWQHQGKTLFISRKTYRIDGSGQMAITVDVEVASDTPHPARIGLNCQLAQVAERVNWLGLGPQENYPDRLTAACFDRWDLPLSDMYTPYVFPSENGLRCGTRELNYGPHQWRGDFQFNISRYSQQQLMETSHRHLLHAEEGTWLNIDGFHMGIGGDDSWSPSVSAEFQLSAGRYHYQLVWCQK

Structure (SMILES): Cc1cccc2c1-c1sc(C(=O)NCCCN3CCCC(C)C3)cc1CO2 (stereo not given)
- IC50 [1]: > 20 µM (inactive)
- CC50 [2]: 19.4 µM (active)
- IC50 [3]: 6 µM (active)
- CC50 [4]: 6.26 µM (active)
- CC50 [5]: 4.45 µM (active)
- AC50 [6]: 90.1 µM (active)

Structure (SMILES): COc1ccc(-c2cnc(NCc3cc4c(cc3[N+](=O)[O-])OCO4)n2C)cc1
- EC50 [7]: > 50 µM (active)

Structure (SMILES): Cc1ccc(NC(=O)c2cc(N3C(=O)C=CC3=O)ccc2Cl)cc1C
- AC50 [8]: 1.5 µM (active)
- IC50 [9]: > 66.6 µM (inactive)
- IC50 [10]: 5.4 µM (active)
- IC50 [11]: 50 µM (inactive)

Structure (SMILES): COc1cc2c(cc1OC)C(c1ccc(-c3ccc(Cl)cc3Cl)o1)=NCC2
- EC50 [12]: > 300 µM (not active)
- EC50 [13]: > 300 µM (not active)
- EC50 [14]: > 32 µM (inactive)

Structure (SMILES): O=C(CSc1nc2ccccc2o1)N1c2ccccc2Sc2ccccc21
- EC50 [14]: > 32 µM (inactive)
